Converted amounts (≈) assume the structure as drawn. Read-outs that look alike come from different tables or passages of the source.

A short description of data set [1]: in vivo. The note with it: mouse, po. As to the method:
Mammalian toxicity was determined against Swiss white mice. The test compound was applied orally using corn oil as the carrier.

The subject of data set [2] is house flies, Musca domestica. Description: insecticidal activity against house flies, topical application, mortality at 24 h. Type of data set: in vivo. The note with it: read-out: House flies LD50. As to the method:
(§1) Representative compounds of the N-arylthio- and N-alkylthiosulfinylcarbamate esters of the invention were tested for insecticidal activity against two insect species, house flies, Musca domestica, and mosquito larvae, Culex pipiens. Stock 1% concentrated solutions of each of the test compounds were made in acetone, and such solutions diluted with acetone to a concentration of 0.001-0.1%. House flies were treated topically on the notum by 1 μl of each of the diluted acetone solutions and percent mortality was counted 24 hours after application. Insects were held at a constant temperature of 60° F. Larvicidal activity was determined by applying 1 ml of the acetone solution in 100 ml of water containing 20 3rd instar mosquito larvae. Results are presented as LD50 in μg/g for house flies and LC50 in ppm for mosquito larvae.

Data set [3] relates to mosquito larvae, Culex pipiens. Description: larvicidal activity against mosquito larvae. Type of data set: in vivo. Particulars: 3rd instar mosquito larvae, 1 ml acetone solution in 100 ml water. As to the method: as §1
[4] abbreviates: house flies, topical on notum, 1 μl acetone solution, 24 hours.

With `CN(C(=O)Oc1cccc2c1OC(C)(C)C2)[S+]([O-])Sc1ccc(C(C)(C)C)cc1` (centres unmarked) [IV, 2,3-dihydro-2,2-dimethylbenzofuranyl-7 (methyl)(4-t-butylphenylthiosulfinyl)carbamate], the LD50 in data set [1] worked out at 92 mg/kg; in data set [2] (topical, 24 h), 11.8 mg/kg.

Turning to `CN(C(=O)Oc1cccc2c1OC(C)(C)C2)[S+]([O-])SC(C)(C)C` (centres unmarked) [II, 2,3-dihydro-2,2-dimethylbenzofuranyl-7 (methyl)(t-butylthiosulfinyl)carbamate], the LD50 in data set [1] was found to be 70 mg/kg; in data set [2] (topical, 24 h), 9 mg/kg. The molecule also returned an LC50 in data set [3] of 0.01 µg/mL (≈ 0.028 µM).

For the molecule `CC(C)c1cccc(OC(=O)N(C)[S+]([O-])SC(C)(C)C)c1` (centres unmarked) [Example X, 3-isopropylphenyl (methyl)(t-butylthiosulfinyl)carbamate], the LD50 came out at 250 mg/kg in data set [1] and 75 mg/kg in data set [2] (topical, 24 h).

In the case of `Cc1cc(C(C)(C)C)ccc1S[S+]([O-])N(C)C(=O)Oc1cccc(C(C)C)c1` (centres unmarked) [XI, 3-isopropylphenyl (methyl)(2-methyl-4-t-butylphenylthiosulfinyl)carbamate], the LD50 in data set [1] was determined as 450 mg/kg; in data set [2] (topical, 24 h), 62.5 mg/kg.

Turning to `CN(C(=O)Oc1cccc2c1OC(C)(C)C2)[S+]([O-])Sc1ccccc1` (centres unmarked) [III, 2,3-dihydro-2,2-dimethylbenzofuranyl-7 (methyl)(phenylthiosulfinyl)carbamate], the LD50 in data set [1] turned out to be 32 mg/kg; in data set [2] (topical, 24 h), 7 mg/kg. Also, the LC50 in data set [3] came to 0.05 µg/mL (≈ 0.132 µM).

On to `CNC(=O)Oc1cccc2c1OC(C)(C)C2` [carbofuran, 2,3-dihydro-2,2-dimethyl-7-benzofuranyl methylcarbamate, reference compound], for which the LD50 in data set [1] is 2 to 8 mg/kg; in data set [2] (topical, 24 h), roughly 6.5 mg/kg.

As for `CN(C(=O)Oc1cccc2ccccc12)[S+]([O-])Sc1ccccc1` (centres unmarked) [XIV, 1-naphthyl (methyl)(phenylthiosulfinyl)carbamate], the LD50 is greater than 1000 mg/kg in data set [1] and 350 mg/kg in data set [2] (topical, 24 h).

As to `Cc1cc(C(C)(C)C)ccc1S[S+]([O-])N(C)C(=O)Oc1ccccc1OC(C)C` (centres unmarked) [VII, 2-isopropoxyphenyl (methyl)(2-methyl-4-t-butylphenylthiosulfinyl)carbamate], the LD50 in data set [1] was greater than 1000 mg/kg; in data set [2] (topical, 24 h), 27 mg/kg.

Turning to `CCCCS[S+]([O-])N(C)C(=O)Oc1cccc2c1OC(C)(C)C2` (centres unmarked) [Example I, 2,3-dihydro-2,2-dimethylbenzofuranyl-7 (methyl)(n-butylthiosulfinyl)carbamate], the LD50 came to 45 mg/kg in data set [1] and 16.5 mg/kg in data set [2] (topical, 24 h).

In the case of `CSC(C)=NOC(=O)N(C)[S+]([O-])SC(C)(C)C` (centres unmarked) [VIII, S-methyl N-[N'-methyl-N'-t-butylthiosulfinylcarbamoyloxy]thioacetimidate], the LD50 in data set [1] came out at 135 mg/kg; in data set [2] (setting [4]), 5.5 mg/kg.

On to `CCCCS[S+]([O-])N(C)C(=O)Oc1ccccc1OC(C)C` (centres unmarked) [Example VI, 2-isopropoxyphenyl (methyl)(n-butylthiosulfinyl)carbamate], for which the LD50 was 1050 mg/kg in data set [1] and 31 mg/kg in data set [2] (topical, 24 h).

Molecule `CNC(=O)Oc1ccccc1OC(C)C` [2-isopropoxyphenyl methylcarbamate, reference compound] came in with an LD50 in data set [1] of 60 mg/kg.

As to `CSC(C)=NOC(=O)N(C)[S+]([O-])Sc1ccccc1` (centres unmarked) [IX, S-methyl N-[N'-methyl-N'-phenylthiosulfinylcarbamoyloxy]thioacetimidate], the LD50 in data set [1] was 150 mg/kg; in data set [2] (setting [4]), 6.5 mg/kg.

For `CN(C(=O)Oc1cccc2ccccc12)[S+]([O-])SC(C)(C)C` (centres unmarked) [XIII, 1-naphthyl (methyl)(t-butylthiosulfinyl)carbamate], the LD50 in data set [1] is greater than 1000 mg/kg; in data set [2] (topical, 24 h), 235 mg/kg.

For `CCCCCCCCCCCCS[S+]([O-])N(C)C(=O)ON=CC(C)(C)SC` (centres unmarked) [XII, 2-methyl-2-(methylthio)propionaldehyde O-[(methyl)(dodecylthiosulfinyl)carbamoyl]oxime], the LD50 in data set [2] (setting [4]) worked out at 12 mg/kg.

As for `Cc1cc(C(C)(C)C)ccc1S[S+]([O-])N(C)C(=O)Oc1cccc2c1OC(C)(C)C2` (centres unmarked) [Example V, 2,3-dihydro-2,2-dimethylbenzofuranyl-7 (methyl)(2-methyl-4-t-butylphenylthiosulfinyl)carbamate], the LD50 in data set [1] amounted to 70 mg/kg; in data set [2] (topical, 24 h), 8.8 mg/kg.

As usually defined, the LD50 is the dose at which mortality reaches 50%. For orientation: LC50 means the concentration that kills 50% of the test population. Low readings indicate greater toxicity, high ones lower toxicity.

These data come from patent US4262015A, “N-alkylthio- and N-arylthiosulfinylcarbamate esters” (priority 1979, dated 1981).
